Substitutions are numbered along the chain they refer to.
Legend:
CYP1B1 F134L = target: T1, CYP1B1 F134L (Homo sapiens, UniProt Q16678, F134L)
T1 sequence (Q16678 1-543 F134L): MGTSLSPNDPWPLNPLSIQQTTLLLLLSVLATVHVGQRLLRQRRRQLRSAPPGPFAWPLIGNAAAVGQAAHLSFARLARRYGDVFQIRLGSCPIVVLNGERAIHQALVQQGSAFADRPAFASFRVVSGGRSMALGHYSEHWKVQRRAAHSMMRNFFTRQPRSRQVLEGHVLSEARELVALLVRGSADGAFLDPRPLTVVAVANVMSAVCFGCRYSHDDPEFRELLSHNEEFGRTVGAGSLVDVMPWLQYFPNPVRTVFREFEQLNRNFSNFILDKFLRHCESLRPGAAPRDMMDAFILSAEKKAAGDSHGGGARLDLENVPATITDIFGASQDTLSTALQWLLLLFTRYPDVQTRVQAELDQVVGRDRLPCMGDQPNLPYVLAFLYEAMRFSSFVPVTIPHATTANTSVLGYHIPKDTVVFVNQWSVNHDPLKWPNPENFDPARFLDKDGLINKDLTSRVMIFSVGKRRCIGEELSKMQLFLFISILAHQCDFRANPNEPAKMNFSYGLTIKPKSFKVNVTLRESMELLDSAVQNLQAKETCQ
From the text: (§1) Site directed mutagenesis was used to probe the importance of specific active-site contacts identified through the structural assessment (Fig. 3a, b) and simulations. In all cases, conservative mutations were made to maintain polar or hydrophobic character and approximate size. The aromatic residues that frame the inhibitor binding site, Phe143 and Phe231, were mutated to Leu to determine the importance of the π interactions. In addition, the Ser127 residue, located in the upper corner of the active site on the B-C loop, was chosen for mutation based on the simulations. This amino acid transiently contacts the inhibitors, but also forms a hydrogen bond with Asp326 of the I-helix, and thus may impact the position of this helix with regards to the B-C loop. […] Rather than directly mutating these residues in the I-helix, neighboring residues Gln332 and Asp333 were targeted, with the hope of interrupting amino acid interactions that position the helix within the active site.
(§2) The ratio of IC50 values for the WT vs. the mutant are shown in Fig. 3c and reflects the importance of the specific contact; the log of the value is used to aid in visualization.
(§3) Cell lines were seeded onto Geltrex coated 96-well plates at 40,000 cells/well, and grown overnight in DMEM media containing 1 μg/mL tetracycline. The media was then replaced with Opti-MEM supplemented with 2% FBS and 1 μg/mL tetracycline. Compounds were serially diluted in Opti-MEM supplemented with 2% FBS and 1 μg/mL tetracycline and an equal volume of compound added to the cells (n = 3). Following a 1 h incubation, resorufin ethyl ether (REE; for CYP1B1 and 1A1) or dibenzylfluorescein (DBF; for 19A1) was added to the cells for a total concentration of 5 μM for REE and 1 μM for DBF. […] Dose–response curves were generated in Prism and normalized using the no-compound control (set as 100% activity) and the no-cell control (set as 0% activity; this value in the raw data reflects the background fluorescence of the dye alone).

CYP1B1 S269A = target: T2, CYP1B1 S269A (Homo sapiens, UniProt Q16678, S269A)
T2 sequence (Q16678 1-543 S269A): T1 sequence (Q16678 1-543 F134L) with L134F, S269A
From the text: as §1, §2, §3

CYP1B1 S127A = target: T3, CYP1B1 S127A (Homo sapiens, UniProt Q16678, S127A)
T3 sequence (Q16678 1-543 S127A): T1 sequence (Q16678 1-543 F134L) with S127A, L134F
From the text: as §1, §2, §3

CYP1B1 D333N = target: T4, CYP1B1 D333N (Homo sapiens, UniProt Q16678, D333N)
T4 sequence (Q16678 1-543 D333N): T1 sequence (Q16678 1-543 F134L) with L134F, D333N
From the text: as §1, §2, §3

CYP1B1 Q332E = target: T5, CYP1B1 Q332E (Homo sapiens, UniProt Q16678, Q332E)
T5 sequence (Q16678 1-543 Q332E): T1 sequence (Q16678 1-543 F134L) with L134F, Q332E
From the text: as §1, §2, §3

Compound: O=c1cc(-c2ccccc2)oc2c1ccc1ccccc12 [ANF, α-naphthoflavone]
- logSI F134L (CYP1B1 F134L): -0.301
- logSI S269A (CYP1B1 S269A): 0
- logSI S127A (CYP1B1 S127A): -1.15
- logSI D333N (CYP1B1 D333N): 1.497
- logSI Q332E (CYP1B1 Q332E): 0.906
